Where no end group is shown, it is not given here. The star is where a group is joined. Myristoyl = CCCCCCCCCCCCCC(=O)*
Legend:
Mut-p53 (R175H p53) = target: T1, Mut-p53 (R175H p53) (Homo sapiens, UniProt P04637, R175H); assay: Sandwich ELISA for p53 conformation (PAb1620/PAb240 reactivity); format: biochemical; conditions: extract of H1299 cells overexpressing R175H p53; peptide 50 ng/ml, 2 hours
T1 construct: a hot spot full length mutant p53 Mut-p53 R175H (R175H p53); expressed in transfected cells; host or cells: H1299 (p53-null) cells stably overexpressing R175H p53; cell extract
Protocol: To measure the conformational effect of the peptides on Mut-p53, a micro-titer plate was coated with either PAb240, PAb1620 or pAb421 (as a positive control and standard for total p53 protein, since the antibody used recognizes both WT and mutant conformations), overnight incubated, washed, blocked, and cell extracts (with or without peptides) were added for an additional 2 hours. After removal of extracts, plates were washed and incubated with the αp53-HRP conjugated Ab for the detection of p53 levels. A TMB (substrate of HRP) assay was performed and optical density was determined at 450 nm. WT p53 served as a positive control for reactivity with PAb1620, and Mut-p53 served as a negative control. The results are presented as the ratio of absorbance between the PAb1620 or PAb240 samples and the control […] sample. MCF7 and H1299-Mut-p53 (ts) A135V (TS) cells were used as positive controls for the WT p53 conformation (1620/240 ratio equals or exceeds 5:1).
96-well plates were coated using 3 different antibodies (1 type of antibody (Ab) in each well): PAb421 recognizes both conformations of p53 and binds to a C-terminus epitope; PAb240 recognizes mutant conformation of p53, binds to epitope within the core domain (amino acids 212-217) (Stephen, C. W. and D. P. Lane, Mutant conformation of p53. Precise epitope mapping using a filamentous phage epitope library. J. Mol. Biol., 1992. 225(3): p. 577-83) which is accessible to the Ab when the protein is partially denatured (for example, when the DBD is mutated); and PAb1620, which recognizes WT conformation of p53, binds to epitope with in the core domain (aa 156, 206-210), formed when folding is in WT conformation (Wang, P. L., F. Salt, and G. Winter, The ‘wild type’ conformation of p53: epitope mapping using hybrid proteins. Oncogene, 2001. 20(18): p. 2318-24).
Wells were incubated overnight (ON) with 100 μl Ab (5 μg/ml) in room temp (RT). The liquid was discarded, and the wells were washed 3 times with Phosphate buffered saline (PBS), 200 μl per each wash. Next, blocking with 200 μl of 5% bovine serum albumin (BSA) diluted in PBS in each well for 1.5 hours at room temperature (RT) was performed. Blocking buffer was discarded, followed by 3 washes in PBS as described above. Samples of mutant and WT p53 proteins (100 μl, 10 μg/ml), together with control peptides pCAP-710 (LPNPPER, SEQ ID NO:328) and pCAP-1220 ([…], SEQ ID NO:368) (5 μg/ml, Sigma Aldrich, or with test peptides 1-153 (5 μg/ml), were incubated for 1.5 hours together, and then added to the wells. Samples were rotated and incubated for 1 hour at RT. Samples were discarded, following 4 washes as described above, using Trisphosphate buffered saline (TPBS). Next, horseradish peroxidase (HRP) conjugated streptavidin p53 antibody (10 μg/ml HAF1355 (R&D)) was added to the wells and incubated at RT for 1 hour. After the plate was washed 3 times in TPBS, TMB substrate solution (50 μl each well, Thermo, (Cat. No. ES001-1L-K)) was added and incubated at 37° c. for 20 min. The reaction was stopped with 2M sulfuric acid (50 μl). The absorbance was measured at 450 nm with a spectrophotometer. Protein concentration was determined by dividing the absorbencies of each sample to the absorbance of Ab 421 samples.
The first screening strategy was based on ELISA. A version of sandwich ELISA was used to examine the effect of the lead test peptides on p53 conformation. To measure the conformational effect of the peptides on Mut-p53, a micro-titer plate was coated with PAb240, PAb1620 or pAb421 (as a positive control), and then the reactivity of p53 to these antibodies was examined. WT p53 served as a positive control for reactivity with PAb1620, and Mut-p53 served as a negative control. To examine the effect of a tested peptide it was added to a solution containing Mut-p53 and change in reactivity to either Ab was tested. […] Several ELISA experiments using different cell extracts were performed. […]

[1] = tested on: SW-480 colon carcinoma cells (p53 R273H and P309S); assay: Xenograft model, Preclinical Trial #3 (Table 9 experiment 3); format: in vivo, CD1 nude/nude mice
Protocol: FIGS. 21A, 21B, 21C, 21D and 21E illustrate the in vivo effect of the indicated peptides in a mouse xenograft model. SW-480 colon cancer cells expressing endogenous mutant p53 and stably expressing luciferase were injected into the left hip of CD1 nude/nude mice. When tumors reached visible size, bioluminescence (indicative of the number of cancer cells) was measured with the IVIS200 system.
After observing the highly significant result in the MDA-MB-231 experiment, additional studies were aimed to extend the observation and examine cells from a different origin, harboring a different p53 point mutation. The SW-480 colon carcinoma cell line harbors two endogenous p53 mutations: the R273H and P309S. SW-480 cells were stably infected with the luciferase reporter gene, and 10^6 cells were subcutaneously injected into nude mice. The experiment contained 15 mice that were randomly divided during the experiment into 3 groups: a control group treated with a cocktail of 3 pCAPs previously proven ineffective, a group treated with a cocktail of 3 effective pCAP (250, 308, 325) and finally a group treated with a single peptide, the pCAP-325. The duration of the SW-480 experiment was 42 days from the point of cell implantation. The time line is relative to the first day of treatment which is marked as day 0. FIGS. 21A-E show tumor growth over time in all three groups as measured by live imaging in the IVIS.
4 pre-clinical experiments have already been performed thus far, using the xenograft model of Mut-p53 expressing cells transfected with a luciferase expression vector, allowing tumor monitoring by live imaging. Two experiments were performed with MDA-MB-231 triple negative breast cancer cells (p53 R280K), one experiment used SW-480 colon cancer carcinoma cells (p53 R273H) and another experiment used SKBR3 breast cancer cells (p53 R175H). In each experiment, cells from the corresponding cell line were injected subcutaneously and allowed the formation of well-established tumors visible both by eye and by live imaging (typically 2-3 weeks). A treatment regimen was then administered, composed of intra-tumor injection of either effective lead peptides or control peptides (showing no activity in-vitro) every three days for a period of up to 42 days.

[2] = tested on: ES2 ovarian carcinoma cells (Mut-p53, position 241); assay: Annexin-V/PI apoptosis assay by flow cytometry; format: cell-based; conditions: 12 ug/ml
Protocol: FIGS. 17A, 17B, 17C and 17D illustrate representative experiments performed on ES2 ovarian carcinoma cells expressing Mut-p53 mutated at position 241 within the DBD. […] Cells were harvested and an apoptosis assay (FIGS. 17A and 17B) was performed using the Annexin-V staining kit (Roche, REF 11 988 549 001). Non-fixed cells were stained with both anti Annexin FITC conjugated antibody to detect apoptotic cells, and PI (propidium iodide) to stain dead cells, according to the manufacturer's instructions. Stained cells were then analyzed by flow cytometry. A total of 10,000 cells was counted for each sample and divided into four sub populations according to staining intensity; cells negative for both PI and Annexin (−PI, −Annexin) are termed live; cells negative for PI and positive for Annexin (−PI, +Annexin) are going through early stages of apoptosis; cells positive for PI and Annexin (+PI, +Annexin) are dead cells that underwent an apoptotic process; and cells positive for PI and negative for Annexin (+PI, −Annexin) are assumed as dead cells that died by a non-apoptotic process such as necrosis.
FIGS. 17A and 17B illustrate a representative experiments performed on ES2 ovarian carcinoma cells (FIGS. 17A-D) expressing Mut-p53 with a mutation at positions 241 within the DBD. […] Cells were harvested, and 60% of the cells were taken for Annexin-PI apoptosis assay and 40% for extraction of RNA, cDNA synthesis and real time PCR analysis. Apoptosis was assayed using the Annexin-V staining kit (Roche, REF 11 988 549 001). Non-fixed cells were stained with both anti Annexin FITC conjugated antibody to detect apoptotic cells, and PI (propidium-iodide) to stain dead cells permeable to the compound, according to the manufacturer's instructions. Stained cells were then analyzed by flow cytometry. A total of 10,000 cells was counted for each sample and divided into four subpopulations according to staining intensity: cells negative for both PI and Annexin (−PI, −Annexin) are termed live; cells negative for PI and positive for Annexin (−PI, +Annexin) are going through early stages of apoptosis; cells positive for PI and Annexin (+PI, +Annexin) are dead cells that underwent an apoptotic process; and cells positive for PI and negative for Annexin (+PI, −Annexin) are assumed to be dead cells that died a non-apoptotic death such as necrosis. […] Treatment with pCAPs 242 and 250 causes a rapid increase in apoptotic cells followed by cell death and after 5 hours of treatment 12% of cells are Annexin positive and about 7% are dead. After 16 and 24 hours of treatment with pCAP 250 the apoptotic population increases to about 27% and dead cells accumulate to 29% at 16h and 36% after 24h. […] CD95 and Btg-2 expression is elevated up to 6 fold over non-treated cells.

Mut-p53 = assay: Total activity score over combined assays (Table 8); design: scale not given here; conditions: for Activity Score: Table 10 summary of activity of the peptides tested; for PCR, activity score / Conformation, activity score: Table 8; for PCR, activity score: head span not shown; for Conformation, activity score: the 14 score columns c4-c17 stand under the heads Conformation, DNA binding, Viability, PCR

Substance	Activity Score (Mut-p53)	further results
LRCLLLLIGRVG [pCAP-24]		reactivity of R175H Mut-p53 towards PAb1620 and PAb240 (conformational change) (Mut-p53 (R175H p53)): increased reactivity of R175H Mut-p53 towards PAb1620 and decreased reactivity towards PAb240
myr-RRIRDPRILLLHFD (Myristoyl-RRIRDPRILLLHFD) [pCAP-325]		IVIS average ratio to day 0 ([1]; Experiment 3, SW-480): 4.4%; Samples average size ([1]; Experiment 3, SW-480): 0.12; Samples average weight ([1]; Experiment 3, SW-480): 0.10; Number of total regression ([1]; Experiment 3, SW-480, 10 samples per group): 2; log of luminescence intensity mean at day 0 ([1]; day 0 (first day of treatment)): 8.97; average fold change in tumor size (from luminescence) ([1]; day 0 to day 35): 0.043 fold; tumor size decrease ([1]; day 0 to day 35, inferred from log of luminescence intensity mean): 95.6%; log of luminescence intensity mean at day 35 ([1]; day 35): 7.61; size and weight of extracted tumors compared to control peptides ([1]; p-value <0.05): significantly smaller in size and weight
myr-RRLIVRILKLPNPPER (Myristoyl-RRLIVRILKLPNPPER) [pCAP-242]		apoptosis and cell death time course compared with pCAP 250 [2]: attenuated and slower; Annexin positive cells ([2]; after 5 hours of treatment): 12%; dead cells ([2]; after 5 hours of treatment): about 7%
pCAP295 (LDLYHPRERR)	3	
pCAP296 (RPADRIRR)	0	
pCAP297 (HDFDPRYRDRR)	0	
pCAP298 (RRIRDPLGNEHE)	3	
pCAP299 (ILQPDFLIRPE)	2	
pCAP300 (RIRRDPDSPLPHPE)	0	
pCAP301 (Myristoyl-IRGRIRIIRRIR)	12	
pCAP302 (LRIEPIRIR)	6	
pCAP303 (IVEFRIRR)	3	
pCAP304 (Myristoyl-RRIRILMFLIGCGRV)	0	
pCAP305 (IREFDPRRIR)	4	
pCAP306 (Myristoyl-RLIRIRILM)	6	
pCAP307 (HDPRIIRIR)	2	
pCAP308 (Myristoyl-RRICRFIRICRVR; cysteine pairing not given here)	40	PCR, activity score (Mut-p53): 6
pCAP309 (HPHVILPRIRIRIR)	0	

Substance	Activity Score (Mut-p53)	further results
pCAP310 (RLRCLLLLIGRVGRR)	4	
pCAP311 (EIHTIHLLPERR)	0	
pCAP312 (RRPRIPDYIL)	3	
pCAP313 (Myristoyl-RRREILHPEFRILYE)	8	
pCAP314 (RSTPHIHEFIRR)	3	
pCAP315 (LHFSHIDRR)	9	
pCAP316 (Myristoyl-DIHTIHLPDTHRR)	7	
pCAP317 (RRDIHTIHPFYQ)	43	PCR, activity score (Mut-p53): 3; Conformation, activity score (Mut-p53): 5
pCAP318 (RPEFHSFHPIYERR)	6	
pCAP319 (SHDFYPHWMRERIR)	3	
pCAP320 (EPSHPRSRYPRTF)	0	
pCAP321 (RNIIIRDFIHFSHIDR)	0	
pCAP322 (RRIRDPQIK(Myristoyl)LEIHFSHID; not fully specified; printed as RRIRDPQIK-myrLEIHFSHID)	0	
pCAP323 (Myristoyl-DLHTIHIPRDRR)	0	
pCAP324 (SHDFPHREPRPERR)	0	
pCAP325 (Myristoyl-RRIRDPRILLLHFD)	61	PCR, activity score (Mut-p53): 6; Conformation, activity score (Mut-p53): 4
pCAP326 (Myristoyl-RRHNAHHSTPHPDDR)	53	PCR, activity score (Mut-p53): 4; Conformation, activity score (Mut-p53): 3

From patent publication US11028127B2, “Peptides capable of reactivating p53 mutants” (Yeda Research and Development Co. Ltd., priority 2013, dated 2021)
